Counter-ions that a name gives are not always drawn.

One assay has as its target T1, PI3Kγ (Homo sapiens, UniProt P48736).
T1 construct: purchased Millipore Ltd (Billerica, Mass.)
As to the kind of experiment: PI3K enzyme inhibitory activity in the cell free assay (ADP-Glo Kinase Assay). Type of assay: biochemical. The note with it: human recombinant PI3Kγ, ATP 30 μM; read-out: PI3K gamma inhibition. For orientation: ADP-Glo turns the ADP formed in a reaction into a luminescent signal.

The target of a further assay is T2, PI3Kδ (Homo sapiens, UniProt O00329).
T2 construct: purchased Millipore Ltd (Billerica, Mass.)
T2 sequence (O00329 1-1044): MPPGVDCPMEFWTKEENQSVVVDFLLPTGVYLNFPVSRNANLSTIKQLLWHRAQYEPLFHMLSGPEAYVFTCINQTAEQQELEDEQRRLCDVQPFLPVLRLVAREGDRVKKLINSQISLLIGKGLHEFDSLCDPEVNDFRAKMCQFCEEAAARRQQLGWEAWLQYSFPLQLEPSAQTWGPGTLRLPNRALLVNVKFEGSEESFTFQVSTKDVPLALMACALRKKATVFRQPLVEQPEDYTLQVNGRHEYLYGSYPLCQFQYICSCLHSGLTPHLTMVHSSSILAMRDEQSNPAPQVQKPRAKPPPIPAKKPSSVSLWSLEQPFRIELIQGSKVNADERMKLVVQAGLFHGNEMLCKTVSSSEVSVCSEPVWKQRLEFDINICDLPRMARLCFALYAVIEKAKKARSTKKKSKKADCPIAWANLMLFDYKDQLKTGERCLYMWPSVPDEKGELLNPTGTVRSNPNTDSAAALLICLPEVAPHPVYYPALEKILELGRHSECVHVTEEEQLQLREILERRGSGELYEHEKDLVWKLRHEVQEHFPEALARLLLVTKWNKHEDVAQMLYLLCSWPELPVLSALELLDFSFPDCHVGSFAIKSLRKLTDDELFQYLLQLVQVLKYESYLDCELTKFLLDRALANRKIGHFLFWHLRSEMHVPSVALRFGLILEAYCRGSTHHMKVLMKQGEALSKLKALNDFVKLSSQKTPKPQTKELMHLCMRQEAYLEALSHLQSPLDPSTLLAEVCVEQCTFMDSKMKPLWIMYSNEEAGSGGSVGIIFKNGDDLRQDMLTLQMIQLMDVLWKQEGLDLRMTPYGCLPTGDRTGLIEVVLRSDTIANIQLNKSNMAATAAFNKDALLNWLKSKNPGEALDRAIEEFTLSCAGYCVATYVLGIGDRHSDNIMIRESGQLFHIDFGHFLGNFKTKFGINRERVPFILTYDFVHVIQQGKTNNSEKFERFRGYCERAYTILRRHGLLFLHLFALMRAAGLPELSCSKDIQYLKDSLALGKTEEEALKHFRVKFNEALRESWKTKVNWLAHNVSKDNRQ
Described as above. In kind it is biochemical. The note with it: human recombinant PI3Kδ, ATP 80 μM; read-out: PI3K delta inhibition.

T1 sequence (P48736 whole entry): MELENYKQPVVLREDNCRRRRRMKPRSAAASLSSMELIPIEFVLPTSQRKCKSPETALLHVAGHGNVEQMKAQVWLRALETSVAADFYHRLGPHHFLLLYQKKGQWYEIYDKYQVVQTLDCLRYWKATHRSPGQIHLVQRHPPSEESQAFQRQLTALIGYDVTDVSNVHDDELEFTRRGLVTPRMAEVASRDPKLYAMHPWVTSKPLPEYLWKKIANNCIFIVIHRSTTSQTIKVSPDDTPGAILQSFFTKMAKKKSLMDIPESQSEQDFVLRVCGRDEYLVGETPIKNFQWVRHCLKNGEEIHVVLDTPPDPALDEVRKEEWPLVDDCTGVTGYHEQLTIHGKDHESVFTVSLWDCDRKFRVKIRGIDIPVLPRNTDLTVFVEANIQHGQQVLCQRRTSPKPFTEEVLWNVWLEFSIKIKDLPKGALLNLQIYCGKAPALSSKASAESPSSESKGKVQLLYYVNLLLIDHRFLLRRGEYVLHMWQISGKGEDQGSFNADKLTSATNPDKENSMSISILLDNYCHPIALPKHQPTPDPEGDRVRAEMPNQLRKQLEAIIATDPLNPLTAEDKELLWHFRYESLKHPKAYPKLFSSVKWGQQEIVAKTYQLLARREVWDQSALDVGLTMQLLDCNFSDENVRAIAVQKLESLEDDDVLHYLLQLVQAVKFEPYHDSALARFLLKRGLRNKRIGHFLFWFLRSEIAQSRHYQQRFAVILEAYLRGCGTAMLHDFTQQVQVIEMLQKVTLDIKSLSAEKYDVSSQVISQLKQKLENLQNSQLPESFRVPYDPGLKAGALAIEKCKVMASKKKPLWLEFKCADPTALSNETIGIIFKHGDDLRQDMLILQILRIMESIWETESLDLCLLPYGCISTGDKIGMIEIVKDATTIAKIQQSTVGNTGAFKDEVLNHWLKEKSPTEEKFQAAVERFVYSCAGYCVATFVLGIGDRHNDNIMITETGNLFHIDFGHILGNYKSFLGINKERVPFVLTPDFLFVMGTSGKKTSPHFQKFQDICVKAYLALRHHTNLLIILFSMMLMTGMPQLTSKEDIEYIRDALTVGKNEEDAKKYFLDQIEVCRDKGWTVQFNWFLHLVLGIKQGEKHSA

Take `CC(Sc1ncnc2[nH]cnc12)c1oc(=O)c2ccccc2c1-c1cccc(F)c1` (centres unmarked) [Example 14, 3-(1-(9H-Purin-6-ylthio)ethyl)-4-(3-fluorophenyl)-1H-isochromen-1-one]: the IC50 was greater than 1000 nM at PI3Kγ and 10 to 1000 nM at PI3Kδ.
For `CC(c1oc(=O)c2ccccc2c1-c1cccc(S(=O)(=O)N2CCOCC2)c1)n1ncc2c(N)ncnc21` (centres unmarked) [Example 16, 3-(1-(4-Amino-1H-pyrazolo[3,4-d]pyrimidin-1-yl)ethyl)-4-(3-(morpholinosulfonyl)phenyl)-1H-isochromen-1-one], in that order: 10 to 1000 nM and 10 to 1000 nM.
For `O=c1oc(CNc2ncnc3[nH]cnc23)c(-c2cccc(F)c2)c2ccccc12` [Example 21, 3-((9H-Purin-6-ylamino)methyl)-4-(3-fluorophenyl)-1H-isochromen-1-one], in that order: 10 to 1000 nM and 10 to 1000 nM.
For `CC(Nc1ncnc2[nH]cnc12)c1oc(=O)c2ccccc2c1-c1ccc(OCCN2CCOCC2)cc1` (centres unmarked) [Example 26, 3-(1-(9H-Purin-6-ylamino)ethyl)-4-(4-(2-morpholinoethoxy)phenyl)-1H-isochromen-1-one formate], in that order: 10 to 1000 nM and 10 to 1000 nM.
With `Cc1cccc(-c2c(CNc3ncnc4[nH]cnc34)oc(=O)c3ccccc23)c1` [Example 31, 3-((9H-Purin-6-ylamino)methyl)-4-m-tolyl-1H-isochromen-1-one], the IC50 at PI3Kγ and on PI3Kδ was 10 to 1000 nM throughout.
As to `CC(Nc1ncnc2[nH]cnc12)c1oc(=O)c2ccccc2c1-c1cccc(F)c1` (centres unmarked) [Example 32, 3-(1-(9H-purin-6-ylamino)ethyl)-4-(3-fluorophenyl)-1H-isochromen-1-one], the IC50 is 10 to 1000 nM on PI3Kγ and less than 10 nM on PI3Kδ.
The like results for `Cc1cccc(-c2c(C(C)Nc3ncnc4[nH]cnc34)oc(=O)c3ccccc23)c1` (centres unmarked) [Example 33, 3-(1-(9H-Purin-6-ylamino)ethyl)-4-m-tolyl-1H-isochromen-1-one] were, in that order, 10 to 1000 nM and less than 10 nM.
The like results for `Cc1n[nH]c2ccc(-c3nn(Cc4oc(=O)c5ccccc5c4-c4ccccc4)c4ncnc(N)c34)cc12` [Example 37, 3-((4-Amino-3-(3-methyl-1H-indazol-5-yl)-1H-pyrazolo[3,4-d]pyrimidin-1-yl)methyl)-4-phenyl-1H-isochromen-1-one] were, in that order, greater than 1000 nM and 10 to 1000 nM.
For `CC(Nc1ncnc2[nH]ncc12)c1oc(=O)c2ccccc2c1-c1ccccc1` (centres unmarked) [Example 43, 3-(1-(1H-pyrazolo[3,4-d]pyrimidin-4-ylamino)ethyl)-4-phenyl-1H-isochromen-1-one], in that order: greater than 1000 nM and 10 to 1000 nM.
Regarding `CC(c1oc(=O)c2ccccc2c1-c1ccc(CN2CCOCC2)cc1)n1nc(-c2cc(O)cc(F)c2)c2c(N)ncnc21` (centres unmarked) [Example 48, 3-(1-(4-amino-3-(3-fluoro-5-hydroxyphenyl)-1H-pyrazolo[3,4-d]pyrimidin-1-yl)ethyl)-4-(4-(morpholinomethyl)phenyl)-1H-isochromen-1-one hydrochloride], the IC50 at PI3Kγ was 10 to 1000 nM; on PI3Kδ, less than 10 nM.
In the case of `CC(c1oc(=O)c2ccccc2c1-c1ccccc1)n1nc(-c2ccnnc2)c2c(N)ncnc21` (centres unmarked) [Example 53, 3-(1-(4-amino-3-(pyridazin-4-yl)-1H-pyrazolo[3,4-d]pyrimidin-1-yl)ethyl)-4-phenyl-1H-isochromen-1-one], the values for the IC50 on PI3Kγ and at PI3Kδ were greater than 1000 nM and 10 to 1000 nM, respectively.
For `CC(c1oc(=O)c2ccccc2c1-c1ccccc1)n1nc(-c2ccncc2)c2c(N)ncnc21` (centres unmarked) [Example 54, 3-(1-(4-amino-3-(pyridin-4-yl)-1H-pyrazolo[3,4-d]pyrimidin-1-yl)ethyl)-4-phenyl-1H-isochromen-1-one], in that order: 10 to 1000 nM and 10 to 1000 nM.
The like results for `COc1ncc(-c2nn(C(C)c3oc(=O)c4ccccc4c3-c3ccccc3)c3ncnc(N)c23)cn1` (centres unmarked) [Example 55, 3-(1-(4-amino-3-(2-methoxypyrimidin-5-yl)-1H-pyrazolo[3,4-d]pyrimidin-1-yl)ethyl)-4-phenyl-1H-isochromen-1-one] were, in that order, 10 to 1000 nM and less than 10 nM.
For `COc1cncc(-c2nn(C(C)c3oc(=O)c4ccccc4c3-c3ccccc3)c3ncnc(N)c23)c1` (centres unmarked) [Example 57, 3-(1-(4-amino-3-(5-methoxypyridin-3-yl)-1H-pyrazolo[3,4-d]pyrimidin-1-yl)ethyl)-4-phenyl-1H-isochromen-1-one], in that order: 10 to 1000 nM and 10 to 1000 nM.
As for `CC(Nc1ncnc2ccsc12)c1oc(=O)c2ccccc2c1-c1ccc(CN2CCOCC2)s1` (centres unmarked) [Example 81, 4-(5-(morpholinomethyl)thiophen-2-yl)-3-(1-(thieno[3,2-d]pyrimidin-4-ylamino)ethyl)-1H-isochromen-1-one hydrochloride], the IC50 is greater than 1000 nM at PI3Kγ and 10 to 1000 nM on PI3Kδ.
Take `CC(Nc1ncnn2cccc12)c1oc(=O)c2ccccc2c1-c1ccccc1` (centres unmarked) [Example 83, 4-phenyl-3-(1-(pyrrolo[2,1-f][1,2,4]triazin-4-ylamino)ethyl)-1H-isochromen-1-one]: the figures for the IC50 on PI3Kγ and at PI3Kδ were greater than 1000 nM and 10 to 1000 nM, respectively.
The like results for `CC(Nc1ncnc2cccnc12)c1oc(=O)c2ccccc2c1-c1ccccc1` (centres unmarked) [Example 84, 4-phenyl-3-(1-(pyrido[3,2-d]pyrimidin-4-ylamino)ethyl)-1H-isochromen-1-one] were, in that order, 10 to 1000 nM and 10 to 1000 nM.
As to `CC(c1oc(=O)c2ccccc2c1-c1ccccc1)n1nc(-c2cncc(CO)c2)c2c(N)ncnc21` (centres unmarked) [Example 85, 3-(1-(4-amino-3-(5-(hydroxymethyl)pyridin-3-yl)-1H-pyrazolo[3,4-d]pyrimidin-1-yl)ethyl)-4-phenyl-1H-isochromen-1-one], the IC50 on PI3Kγ and on PI3Kδ was 10 to 1000 nM throughout.
Regarding `CC(c1oc(=O)c2ccccc2c1-c1ccccc1)n1nc(-c2ccc(CO)nc2)c2c(N)ncnc21` (centres unmarked) [Example 86, 3-(1-(4-amino-3-(6-(hydroxymethyl)pyridin-3-yl)-1H-pyrazolo[3,4-d]pyrimidin-1-yl)ethyl)-4-phenyl-1H-isochromen-1-one], the results for the IC50 on PI3Kγ and on PI3Kδ were 10 to 1000 nM and less than 10 nM, respectively.
For `CC(c1oc(=O)c2ccccc2c1-c1ccccc1)n1nc(-c2ccnc(N)n2)c2c(N)ncnc21` (centres unmarked) [Example 89, 3-(1-(4-amino-3-(2-aminopyrimidin-4-yl)-1H-pyrazolo[3,4-d]pyrimidin-1-yl)ethyl)-4-phenyl-1H-isochromen-1-one hydrochloride], in that order: 10 to 1000 nM and greater than 1000 nM.
For `CC(C)Oc1ccc(-c2nn(C(C)c3oc(=O)c4ccccc4c3-c3ccccc3)c3ncnc(N)c23)cc1F` (centres unmarked) [Example 93, 3-(1-(4-amino-3-(3-fluoro-4-isopropoxyphenyl)-1H-pyrazolo[3,4-d]pyrimidin-1-yl)ethyl)-4-phenyl-1H-isochromen-1-one], in that order: 10 to 1000 nM and 10 to 1000 nM.
The like results for `CC(c1oc(=O)c2ccccc2c1-c1ccccc1)n1nc(-c2cncc(F)c2)c2c(N)ncnc21` (centres unmarked) [Example 94, 3-(1-(4-amino-3-(5-fluoropyridin-3-yl)-1H-pyrazolo[3,4-d]pyrimidin-1-yl)ethyl)-4-phenyl-1H-isochromen-1-one] were, in that order, 10 to 1000 nM and 10 to 1000 nM.
In the case of `CC(c1oc(=O)c2ccccc2c1-c1ccccc1)n1nc(-c2ccc(S(C)(=O)=O)nc2)c2c(N)ncnc21` (centres unmarked) [Example 97, 3-(1-(4-amino-3-(6-(methylsulfonyl)pyridin-3-yl)-1H-pyrazolo[3,4-d]pyrimidin-1-yl)ethyl)-4-phenyl-1H-isochromen-1-one], the IC50 at PI3Kγ is greater than 1000 nM; on PI3Kδ, less than 10 nM.
The like results for `CC(Nc1ncnc2ccsc12)c1oc(=O)c2ccccc2c1-c1ccccc1` (centres unmarked) [Example 109, 4-phenyl-3-(1-(thieno[3,2-d]pyrimidin-4-ylamino)ethyl)-1H-isochromen-1-one] were, in that order, 10 to 1000 nM and 10 to 1000 nM.
The like results for `CC(Nc1ncnc2[nH]cnc12)c1oc(=O)c2ccccc2c1-c1ccc(CN2CCNCC2)cc1` (centres unmarked) [Example 126, 3-(1-(9H-purin-6-ylamino)ethyl)-4-(4-(piperazin-1-ylmethyl)phenyl)-1H-isochromen-1-one dihydrochloride] were, in that order, 10 to 1000 nM and 10 to 1000 nM.

These data come from patent US9321776B2, “Isochromene derivatives as phoshoinositide 3-kinases inhibitors” (CHIESI FARMACEUTICI S.p.A., priority 2013, dated 2016).
